The values below are quoted from earlier work in US11406849B2, “Amino alcohol-containing skin cleansing composition for removing keratotic plugs from skin” (KAO CORPORATION, priority 2017, dated 2022).

In the case of `NC(CO)(CO)CO` [Component (X1), 2-amino-2-hydroxymethyl-1,3-propanediol], the Solubility in water entry is “readily dissolved in water”. As for `CC(C)(N)CO` [Component (X2), 2-amino-2-methyl-1-propanol], the Solubility in water entry is “readily dissolved in water”.
